From patent US20260091086A1, “POLYPEPTIDE COMBINATIONS AND USES THEREOF” (MEDIMMUNE LIMITED, priority 2024, published 2026)
Numbered stars: 1 amine (or outer) side, 2 acyl side, 3 side chain; on linkers, the order of the positions; unused ones are H or OH. Bridge positions count the residues as written; N and C are the ends. Square brackets hold non-standard residues; d marks the D form. Side chains are listed from the residue outwards. Ends that are not written are not given here. * marks the point of attachment. C18 diacid = O=C(O)CCCCCCCCCCCCCCCCC(=O)*; γGlu = O=C(O)[C@H](CCC(=O)[*:2])N[*:1]; αMeF = C[C@](N)(Cc1ccccc1)C(=O)O

Experiments:
[1] = system: diet-induced obese (DIO) Sprague-Dawley rats; assay: Example 2: 28-day combination study in DIO rats (body weight, EchoMRI body composition); assay type: in vivo, rat; details: LAA 10 nmol/kg, GLP-1/GCG 5.4 nmol/kg or both
Procedure: Study Design: Male diet-induced obese (DIO) Sprague-Dawley rats were fed a high fat diet (45% fat, D12451; Research Diets) for 34 weeks prior to study start. […] Research Diets). […] Average body weight for all DIO rats at start of study was 722.4+10.1 grams. Body composition was measured by EchoMRI on day-7 and day 26. In this experiment, the LAA was that of SEQ ID NO: 11, and the GLP-1/GCG dual-agonist was cotadutide. Data reported as mean±standard error of the mean (SEM); data analysis performed using GraphPad Prism-statistical analysis performed using One-way ANOVA with Tukey ad hoc analysis.

DIO Sprague-Dawley rats = assay: Example 3: 28-day body weight study in DIO rats; assay type: in vivo, rat; details: day 28; LAA 7.5 nmol/kg SC QD
Procedure: Study Design: Male DIO Sprague-Dawley rats were fed a high-fat diet (32.5% kcal fat, D12266B; Research Diets) for approximately 8 weeks prior to study start. Rats were dosed once daily SC for 28 days with Vehicle, GLP-1/GCG (1.5 nmol/kg or 5 nmol/kg), LAA (7.5 nmol/kg) or a combination of GLP-1/GCG and LAA (1.5 and 7.5 nmol/kg, or 5 nmol/kg and 7.5 nmol/kg, respectively) with an n=6/group. Body weight was monitored daily throughout the study. Data reported as mean±standard error of the mean (SEM); data analysis performed using GraphPad Prism-statistical analysis performed using One-way ANOVA with Tukey ad hoc analysis (*p<0.05, **p<0.01, ***0<0.001, ****p<0.0001). In this experiment, the LAA was that of SEQ ID NO: 11, and the GLP-1/GCG dual-agonist was cotadutide.

chow fed lean rats = assay: Example 3: acute gastric emptying by X-ray fluoroscopic quantification; assay type: in vivo, rat; details: acute SC
Procedure: Study design: DIO male pair-housed rats fed a 32.5% high-fat diet (D12266B) for 7 weeks reached a mean body weight (BW) of ˜595 g. Rats were dosed SC daily for 28 days with vehicle (Vh), GLP-1/GCG dual agonist (1.5 or 5 nmol/kg), LAA (2.5 or 7.5 nmol/kg), or combination (1.5+2.5 nmol/kg, 1.5+7.5 nmol/kg, 5+2.5 nmol/kg, or 5+7.5 nmol/kg, respectively). Food intake (FI) and BW were measured daily. In chow fed lean rats, gastric emptying (GE) was measured via X-ray fluoroscopic quantification following SC injections of Vh, GLP-1/GCG dual agonist at 1, 3, or 10 nmol/kg or LAA at 1, 3, or 10 nmol/kg. In a subsequent acute GE study, lean rats received a single dose of Vh, GLP-1/GCG dual agonist (2 nmol/kg), LAA (2 nmol/kg) or GLP-1/GCG dual agonist+LAA combination (2+2 nmol/kg). In this experiment, the LAA was that of SEQ ID NO: 11, and the GLP-1/GCG dual-agonist was cotadutide.

DIO rat = assay: Example 3: repeat dose DIO rat gastric emptying study; assay type: in vivo; details: 2 nmol/kg monotherapy, beyond 7 days of treatment
Description: Study Design: […] X-ray fluoroscopic quantification was used to assess gastric emptying. In this experiment, the LAA was that of SEQ ID NO: 11, and the GLP-1R agonist was semaglutide.

Wistar Han rats = assay: Example 4: 3-month subcutaneous study, body weight; assay type: in vivo, rat; details: for Body Weight Comparison, Day 92 vs. Control Group 1 Day 92 / Body Weight Gain (Day 92 vs Day −1) / Mean Body Weight at Day 92: dose levels 2000/0, Group 4
Procedure: Study Design: Male (9-11 weeks of age) and female (10-11 weeks of age) Wistar Han rats were SC administered with Vehicle/Vehicle (group 1—for LAA of SEQ ID NO: 11 and GLP-1/GCG of SEQ ID NO: 35), LAA of SEQ ID NO: 11 and GLP-1/GCG of SEQ ID NO: 35 (group 2—500 and 5 μg/kg respectively), LAA of SEQ ID NO: 11 and GLP-1/GCG of SEQ ID NO: 35 (group 3—2000 and 5 μg/kg respectively), SEQ ID NO: 11 and Vehicle for SEQ ID NO: 35 (group 4—2000 μg/kg and 0 μg/kg respectively), or Vehicle for SEQ ID NO: 11 and SEQ ID NO: 35 (group 5—0 and 5 μg/kg respectively) daily for 91 days. Dosing for LAA of SEQ ID NO: 11 was dose escalated with group 2 receiving 250 μg/kg from day 1-5 and 500 μg/kg for duration of study, and groups 3 and 4 receiving 250 μg/kg SEQ ID NO: 11 from day 1-5, 500 μg/kg SEQ ID NO: 11 from days 7-13 and 2000 μg/kg for duration of study. There was a n=10/group per gender.

DIO rats = assay: Example 7: 28-day LAA and GLP/GIP dual agonist study; assay type: in vivo, rat
Procedure: Study Design: Male rats were fed a high-fat diet (45% kcal fat-D12451; Research Diets) or chow control matched diet (10% kcal fat-D12450K; […] Control rats were dosed SC with Vehicle. Body weight was monitored daily through-out study and body composition measured by EchoMRI at baseline (week-1) and end of study (week 4). […]

[2] = system: High-fat diet (DIO) fed rats; assay: Example 9: 4-week LAA or DACRA monotherapy in DIO rats; assay type: in vivo, rat; details: for BW reduction compared to vehicle / reduction of cumulative food intake: 4 weeks
Description: Study 1 Design: High-fat diet (DIO) fed rats were used to profile LAA or DACRA monotherapy to evaluate food intake, body weight-lowering and body composition effects in a 4-week study. In this experiment, the LAA was that of SEQ ID NO: 11 and the DACRA was cagrilintide.

Substance: K(γE-γE-C18diacid)[CNTATC]ATQRLANFLRHSSNN(αMePhe)GPILPPTEVGSNTY-amide (K([γGlu-γGlu-C18 diacid])CNTATCATQRLANFLRHSSNN[αMeF]GPILPPTEVGSNTY-NH2; disulfide 2-7) [LAA]
- body weight loss vs Vehicle ([1]; SC QD, FIG. 1A): lost significantly more body weight than Vehicle treated rats
- fat mass change (EchoMRI) ([1]; day 26): lost a significant amount of fat mass compared to Vehicle treatment
- lean mass change (EchoMRI) ([1]; day 26): little effect on lean mass
- mean change in body weight normalized to Vehicle (DIO Sprague-Dawley rats): −13.7%
- GE AUC as % of Vehicle (chow fed lean rats; 1 nmol/kg): 101%
- GE AUC as % of Vehicle (chow fed lean rats; 3 nmol/kg): 34%
- GE AUC as % of Vehicle (chow fed lean rats; 10 nmol/kg): 8%
- GE delay on repeat dosing (DIO rat): maintained GE delay beyond 7 days of treatment
- Body weight at study day 92 vs Vehicle (Wistar Han rats; both male and female, groups 2-5): significantly lower
- Body Weight Comparison, Day 92 vs. Control Group 1 Day 92 (Wistar Han rats; female): 89%
- Body Weight Gain (Day 92 vs Day −1) (Wistar Han rats; female): 110%
- Mean Body Weight at Day 92 (Wistar Han rats; female): 222.1 grams
- Body Weight Comparison, Day 92 vs. Control Group 1 Day 92 (Wistar Han rats; male): 79%
- Body Weight Gain (Day 92 vs Day −1) (Wistar Han rats; male): 119%
- Mean Body Weight at Day 92 (Wistar Han rats; male): 319.2 grams
- body weight change (DIO rats; day 28, mono-treatment 10 nmol/kg SC QD): −5.6%
- change in fat mass (g) (DIO rats; end of study (week 4), EchoMRI, FIG. 6C): significant decrease in fat mass
- change in lean mass (g) (DIO rats; end of study, EchoMRI, mono-treatment, FIG. 6D): no effect on lean mass
- BW reduction compared to vehicle ([2]; 2.5 nmol/kg): −5.2±0.6%
- reduction of cumulative food intake ([2]; 2.5 nmol/kg): −14.3±1.2 % of vehicle
- BW reduction compared to vehicle ([2]; 10 nmol/kg): −9.7±0.7%
- reduction of cumulative food intake ([2]; 10 nmol/kg): −20.9±0.7 % of vehicle
- fat-mass loss ([2]; end of study, 10 nmol/kg): -28.0 ± 2.3 g
- proportion of body weight loss that was fat-mass specific ([2]; end of study, 10 nmol/kg, FIG. 8C): 100%
- lean mass ([2]; end of study, FIG. 8B): Lean mass was preserved in the LAA groups
